Results on 7 compounds are retold here after patent US8030294B2, “Compounds for the treatment of psychiatric or substance abuse disorders” (The McLean Hospital Corporation, priority 2000, dated 2011).

The conditions of data set [1]: in vivo; cited from earlier work.
The conditions of data set [2]: in vivo; cited from earlier work. This is another data set of the same source.
A short description of data set [3]: Continuous performance task (CPT), a measure of attention, in children with ADHD. It counts as in vivo, human. To be noted: ADHD boys (n=11), one week. The procedure:
(§1) A new fMRI procedure (T2 relaxometry or “T2-RT”) was developed to indirectly assess blood volume in the striatum (caudate and putamen) of boys 6-12 years of age under steady-state conditions. Six healthy control boys (10.2±1.5 yr) and eleven boys diagnosed with ADHD (9.3±1.6 yr) served as subjects in the study to examine fMRI differences between unmedicated healthy controls and ADHD children on either placebo or the highest dose of methylphenidate. […] Activity and attention were evaluated in unmedicated healthy controls using the same procedure as children with ADHD, and fMRI followed within the same time frame.
(§2) Highly accurate laboratory-based measures of activity and attention were obtained by having the children perform a computerized vigilance test while an infrared motion analysis system captured and recorded movements (see Methods). […]
(§3) Assessment of Activity and Attention. […] In brief, children sat in front of a computer and were evaluated using a simple GO/NO-GO CPT in which the subject responds to visual presentation of a target and withholds response to a non-target stimuli that appear in the center of the screen at a fixed 2 second […] interval (Greenberg et al., Psychopharmacol. Bull. 23: 279-282,1987). […]

Data set [4] concerns regional blood volume in putamen, caudate and thalamus. Kind of data set: T2 relaxometry (T2-RT) fMRI in children with ADHD. It counts as in vivo, human. To be noted: ADHD boys, vs placebo; P>0.7.
Excerpt: A new fMRI procedure (T2 relaxometry or “T2-RT”) was developed to indirectly assess blood volume in the striatum (caudate and putamen) of boys 6-12 years of age under steady-state conditions. […] Children with ADHD were included if they met criteria for ADHD on structured diagnostic interview, and had at least 6 of 9 symptoms of inattention or hyperactivity-impulsivity. Children with ADHD took part in a triple blind (parent, child, rater), randomized, placebo-controlled study of effects of methylphenidate (0, 0.5, 0.8, 1.5 mg/kg in divided dose) on activity, attention, and fMRI. Children with ADHD were treated continuously for one week with placebo or a specific dose of methylphenidate and at the end of the week were tested for drug efficacy using objective measures of attention and activity and fMRI (See Methods) within 1-3 hours of their afternoon dose. The time between dose and testing was held constant for each subject throughout the four treatment conditions. Activity and attention were evaluated in unmedicated healthy controls using the same procedure as children with ADHD, and fMRI followed within the same time frame.
T2 relaxometry, a novel FMRI procedure, was used to derive steady state blood flow measures and to test for enduring medication effects. […]
Data set [5] can be described thus: Infrared motion analysis of activity during CPT in children with ADHD. It counts as in vivo, human. To be noted: ADHD boys (n=11) vs placebo; P<0.05. The procedure:
as §1, §2, §3

The nature of data set [6]: Forced swim test (FST), a rodent model of depression. To be noted: rats, IP; for effect in the forced swim test: citicoline 50-500 mg/kg, molar equivalent cytidine 23.8-238 mg/kg, choline 13.7-136.6 mg/kg. It counts as in vivo. The source says:
The effects of citicoline were examined in the forced swim test (FST), a rodent model of depression.

The conditions of data set [7]: cited from earlier work.
The next data set relates to brain phosphodiesters. In words: Phosphorus-31 MR spectroscopy of brain lipid metabolite resonances in healthy subjects. To be noted: healthy subjects (mean age 70), 500 mg oral daily, 6 to 12 weeks; p=0.008. It counts as in vivo, human. The procedure:
To assess whether chronic CDP-choline administration leads to detectable changes in lipid metabolite resonances in phosphorus-31 MR spectra, eighteen healthy subjects (mean age: 70) were administered 500 mg of an oral formulation of CDP-choline daily for a six week period. From weeks 6 to 12, half of the subjects continued to receive CDP-choline and half received placebo in a double-blind fashion. […] CDP-choline administration, therefore, improves measures of verbal fluency and spatial memory in healthy adults and results in increased brain phospholipid synthesis in older adults, particularly during chronic administration.

For data set [8] the following is noted: cited from earlier work. The source holds these as a separate data set.
The nature of data set [9]: 17-item Hamilton Depression Rating Scale (HDRS) in depressed subjects. It counts as in vivo, human. To be noted: eight weeks, CDP-choline 6/12, fluoxetine 17/41. The procedure: In a second study, twelve depressed subjects (mean age 40) received 500 mg of an oral formulation of CDP-choline twice daily for eight weeks.

`O=c1ccn([C@@H]2O[C@H](CO)[C@@H](O)[C@H]2O)c(=O)[nH]1` [uridine]: the tolerability in mammals result in data set [1] is recorded as “well tolerated”. The tolerability in humans entry in [2] is given as “well tolerated”.

Regarding `COC(=O)C(c1ccccc1)C1CCCCN1` (centres unmarked) [methylphenidate], the CPT performance accuracy result in data set [3] (highest dose vs placebo, P<0.05) is given as “enhancing performance accuracy”. Also, the “response variability (S.D.) of CPT response latency” value in [3] (reduced from 242 on placebo, P<0.005) turned out to be 149 ms. The T2-RT in thalamus result in data set [4] is recorded as “not affected”. Further, the “complexity of the movement pattern” value in data set [5] is “increasing the complexity of the movement pattern”.

For the compound `CN(CC(=O)O)C(=N)N` [Creatine, creatine], in data set [2], the tolerability in humans entry is “well tolerated at relatively high doses”.

Turning to `CC(=O)OC[C@H]1O[C@@H](n2ccc(=O)[nH]c2=O)[C@H](OC(C)=O)[C@@H]1OC(C)=O` [triacetyl uridine], in data set [1], the tolerability in mammals result is “well tolerated”.

As to `Nc1ccn([C@@H]2O[C@H](CO)[C@@H](O)[C@H]2O)c(=O)n1` [cytidine], the “effect in the forced swim test” value in data set [6] was “significant antidepressant effects”.

Regarding `C[N+](C)(C)CCOP(=O)(O)OP(=O)([O-])OC[C@H]1O[C@@H](n2ccc(N)nc2=O)[C@H](O)[C@@H]1O` [CDP-choline, cytidine 5′-diphosphocholine], the tolerability in mammals result in data set [1] is “well tolerated”. In data set [7] (in vivo), the “reported cases of overdoses” value was “no reported cases of overdoses”. The “symptoms on ingestion of large amounts” value in [7] (preclinical studies, salivation, lacrimation, urination, defecation, vomiting) is listed as “common cholinergic symptoms”. Further, the brain phosphodiesters result in the data set with brain phosphodiesters is listed as “significant increase”. In addition, the “effect in the forced swim test at high doses” value in data set [6] (high doses) is on record as “small pro-depressant effects”. The “effect in the forced swim test” value in [6] is “did not have antidepressant effects”. In addition, in [8] (orally or intravenously), the “conversion into the two major circulating metabolites, choline and cytidine” value is “rapidly converted”. Also, in data set [8] (share of dose), the excretion via lung was 12.9% and the excretion via urine is reported as 2.4%. The “complete responses (share of subjects)” value in data set [9] was 50%.

`CNCCC(Oc1ccc(C(F)(F)F)cc1)c1ccccc1` (centres unmarked) [fluoxetine]: the “complete responses (share of subjects)” value in data set [9] is on record as 41%.
